8 molecules from US20110081316A1, “PYRAZOLE INHIBITORS OF PHOSPHATIDYLINOSITOL 3-KINASE” (VERTEX PHARMACEUTICALS INCORPORATED, priority 2009, published 2011) can be followed below.

This assay addresses PI3K-gamma (Homo sapiens, UniProt P48736). In words: PI3K Inhibition Assay (33P-ATP, PI(4,5)P2 substrate, filter plate scintillation counting). It counts as biochemical. The conditions noted are these: 2 nM enzyme, 3 μM ATP, 30 μM PI(4,5)P2, 30 min at 25° C.; competitive tight binding Ki fit. On the procedure: Using a Biomek FX from Beckman Coulter, 1.5 μL of each of ten 2.5-fold serial dilutions of a compound of the invention in 100% DMSO was added to an individual well (hereafter, “test well”) in a 96 well polystyrene plate [Corning, Costar Item No. 3697]. One test well also contained 1.5 μL of DMSO with no compound. […] Using a Titertek Multidrop, 50 μL of Reaction Mix [100 mM HEPES pH 7.5, 50 mM NaCl, 10 mM DTT, 0.2 mg/mL BSA, 60 μM phosphatidylinositol(4,5)bisphosphate diC16 (PI(4,5)P2; Avanti Polar Lipids, Cat. No. 840046P) and PI3K isoform of interest (see Table 3 for isoform concentrations)] was added to each well. To initiate the reaction, 50 μL of ATP Mix [20 mM MgCl2, 6 μM ATP (100 μCi/μmmole ^33P-ATP)] was added each well, followed by incubating the wells for 30 min. at 25° C. Final concentrations in each well were 50 mM HEPES 7.5, 10 mM MgCl2, 25 mM NaCl, 5 mM DTT, 0.1 mg/mL BSA, 30 μM PI(4,5)P2, 3 μM ATP, and the PI3K isoform of interest (see Table 3). Final compound concentrations in each well ranged from 10 μM to 1 nM. [table] After incubation, the reactions in each well were quenched by addition of 50 μL of stop solution [30% TCA/Water, 10 mM ATP]. Each quenched reaction mixture was then transferred to a 96 well glass fiber filter plate [Corning, Costar Item No. 3511]. The plate was vacuum-filtered and washed three times with 150 μL of 5% TCA/water in a modified Bio-Tek Instruments ELX-405 Auto Plate Washer. 50 μL of scintillation fluid was added to each well and the plate read on a Perkin-Elmer TopCount™ NXT liquid scintillation counter to obtain ^33P-counts representing inhibition values. The value for the background well was subtracted from the value obtained for each test well and the data were fit to the competitive tight binding Ki equation described by Morrison and Stone, Comments Mol. Cell. Biophys. 2: 347-368, 1985.

Chain of PI3K-gamma (P48736 whole entry, species assumed, canonical isoform): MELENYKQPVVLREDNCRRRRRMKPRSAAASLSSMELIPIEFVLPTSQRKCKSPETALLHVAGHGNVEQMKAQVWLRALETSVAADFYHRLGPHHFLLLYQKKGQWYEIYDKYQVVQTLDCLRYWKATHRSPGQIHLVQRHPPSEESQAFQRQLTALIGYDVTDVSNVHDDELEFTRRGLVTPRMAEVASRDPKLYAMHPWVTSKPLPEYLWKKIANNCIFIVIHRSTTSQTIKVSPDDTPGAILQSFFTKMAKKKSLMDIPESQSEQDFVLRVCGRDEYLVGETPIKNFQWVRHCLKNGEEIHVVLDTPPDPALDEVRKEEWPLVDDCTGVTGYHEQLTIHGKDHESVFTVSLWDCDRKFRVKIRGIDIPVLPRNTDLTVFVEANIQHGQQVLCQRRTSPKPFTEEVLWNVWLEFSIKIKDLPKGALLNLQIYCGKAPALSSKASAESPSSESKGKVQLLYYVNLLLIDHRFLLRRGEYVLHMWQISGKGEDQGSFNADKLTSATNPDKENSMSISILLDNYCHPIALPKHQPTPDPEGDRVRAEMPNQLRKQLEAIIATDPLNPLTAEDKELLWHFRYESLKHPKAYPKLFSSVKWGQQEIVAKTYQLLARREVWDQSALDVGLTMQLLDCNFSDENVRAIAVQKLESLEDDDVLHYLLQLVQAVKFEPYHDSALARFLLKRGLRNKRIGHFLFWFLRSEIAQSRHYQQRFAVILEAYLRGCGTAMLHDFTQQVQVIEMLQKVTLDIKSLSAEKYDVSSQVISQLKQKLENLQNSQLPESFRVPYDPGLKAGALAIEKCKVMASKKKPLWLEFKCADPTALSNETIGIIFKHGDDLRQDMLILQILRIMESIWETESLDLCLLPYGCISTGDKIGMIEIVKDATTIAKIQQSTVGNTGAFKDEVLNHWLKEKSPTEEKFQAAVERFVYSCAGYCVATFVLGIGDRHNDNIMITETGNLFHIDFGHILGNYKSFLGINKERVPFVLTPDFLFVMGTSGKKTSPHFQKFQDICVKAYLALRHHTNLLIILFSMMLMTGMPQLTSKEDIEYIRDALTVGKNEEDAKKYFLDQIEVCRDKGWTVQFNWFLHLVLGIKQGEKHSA

In general, Ki refers to the equilibrium dissociation constant of an inhibitor or competing ligand from its target. A low value points to higher affinity. On to `Cn1nc(NC(=O)NCCOCC2CC2)cc1C#Cc1ccc(N)nc1` [Compound 7], for which the Ki was < 100 nM.

In the case of `Cn1nc(NC(=O)NCCOCC2CC2)cc1C#Cc1ccc2nccnc2c1` [Compound 9], the Ki is < 100 nM.

`COc1cc(C#Cc2cc(NC(=O)NC[C@@H](C)OCC3CC3)nn2C)cnc1OC` [Compound 11]: the Ki is < 100 nM.

For `COc1cc(C#Cc2cc(NC(=O)NC[C@H](C)OCC3CC3)nn2C)cnc1OC` [Compound 14], the Ki is < 100 nM.

Take `C[C@@H](CNC(=O)Nc1cc(C#Cc2ccc3nccnc3c2)n(C)n1)OCC1CC1` [Compound 12]: the Ki is < 100 nM.

Regarding `Cn1nc(NC(=O)NCCc2cn(CC(F)F)cn2)cc1C#Cc1cccnc1` [Compound 3], the Ki was < 100 nM.

Take `Cn1nc(NC(=O)NCCOCC2CC2)cc1C#Cc1cccnc1Cl` [Compound 8]: the Ki is < 100 nM.

With `COc1cncc(C#Cc2cc(NC(=O)NCCOCC3CC3)nn2C)c1` [Compound 6], the Ki is < 100 nM.
